Measurements: patent US20250163057A1, “DCN-1 MODULATING COMPOUNDS AND METHODS OF USE THEREOF” (Cellarity, Inc., priority 2023, published 2025)
pIC50: −log10 of the molar value. Read-outs that look alike come from different tables or passages of the source.

Molecular target: DCN1 (DCUND1) protein PONY domain (Homo sapiens (Human), UniProt Q96GG9)
Experiment: TR-FRET assay, DCN1 binding with FAM-labeled probe
Conditions: for IC50: TR FRET IC50 1 hr (nM)
Description: A TR-FRET assay was performed to evaluate the ability of the compounds to bind the DCN-1 protein.
The TR-FRET assay was designed following the Scott et al. protocol (Scott et al., Nat Chem Biol. 2017 August; 13(8): 850-857. Doi:10.1038/nchembio.2386). The recombinant form of the DCN1 (DCUND1) protein PONY domain was produced using an E. coli expression system at Viva Biotech (China). The DCN1 protein was biotinylated (EZ sulfo-NHS-LC-biotin; Thermofisher) for labeling with streptavidin terbium (Tb) cryptate in the reaction. The probe was changed to a non-covalent DCN1 inhibitor labeled with carboxyfluorescein (FAM; Zhou et al., Nat Commun. 2017; 8: 1150. Doi: 10.1038/s41467-017-01243-7). Buffer conditions were modified to enhance protein stability by exchanging Tween20 for TritonX and increasing NaCl to 200 mM. The compounds were screened against 5 nM DCN1 and 20 nM FAM-probe or 0.31 nM DCN1 and 900 nM total probe (100 nM FAM-labeled plus 800 nM unlabeled). The TR-FRET ratio between Tb-DCN1 and the FAM-labeled probe was measured in a 384-well opti-plate (Perkin Elmer) using a plate reader (BMG) at 1, 5, and 24 hrs after treatment with compound (final DMSO concentration of 0.1%).

[1] = 24 hr after treatment with compound, read-out: TR FRET IC50 24 hr
[2] = 1 hr after treatment with compound

DCN1 (DCUND1) protein PONY domain, sequence (Q96GG9 60-248): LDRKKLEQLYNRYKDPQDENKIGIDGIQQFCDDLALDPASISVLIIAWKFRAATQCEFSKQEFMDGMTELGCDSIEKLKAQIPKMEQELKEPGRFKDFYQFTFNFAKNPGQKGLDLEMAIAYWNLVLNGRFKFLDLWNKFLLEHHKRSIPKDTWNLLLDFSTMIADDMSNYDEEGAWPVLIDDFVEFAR

Compound	pIC50 [1]	IC50 [2] [nM]	pIC50 (read-out: TR FRET IC50 1 hr, 1 hr after treatment with compound)
CCN1C(=O)[C@@H](NC(=O)c2cccc(C(F)(F)F)c2)[C@@H](c2ccc(F)cc2)c2c(C/C=C/C(N)=O)nn(-c3ccccc3)c21 (racemic) [Compound I-46, rac-N-((4R,5R)-3-((E)-4-amino-4-oxobut-2-en-1-yl)-7-ethyl-4-(4-fluorophenyl)-6-oxo-1-phenyl-4,5,6,7-tetrahydro-1H-pyrazolo[3,4-b]pyridin-5-yl)-3-(trifluoromethyl)benzamide]	5.52 to 6.00	1000 to 3000	
CCN1C(=O)[C@@H](NC(=O)c2cccc(C(F)(F)F)c2)[C@@H](c2ccc(F)cc2)c2c(CC/C=C/C(=O)N(C)C)nn(-c3ccccc3)c21 (racemic) [Compound I-48]	≥ 6.70		≥ 6.70
CCN1C(=O)[C@@H](NC(=O)c2cccc(C(F)(F)F)c2)[C@@H](c2ccc(F)cc2)c2c(C3(N(C)C#N)CC3)nn(-c3ccccc3)c21 (racemic) [Compound I-52]	5.52 to 6.00	1000 to 3000	
C=C(C)S(=O)(=O)NCc1nn(-c2ccccc2)c2c1[C@H](c1ccc(F)cc1)[C@H](NC(=O)c1cccc(C(F)(F)F)c1)C(=O)N2CC (racemic) [Compound I-54, rac-N-((4R,5R)-7-ethyl-4-(4-fluorophenyl)-3-(((1-methylvinyl)sulfonamido)methyl)-6-oxo-1-phenyl-4,5,6,7-tetrahydro-1H-pyrazolo[3,4-b]pyridin-5-yl)-3-(trifluoromethyl)benzamide]	6.00 to 6.70	200 to 1000	
CCN1C(=O)[C@@H](NC(=O)c2cccc(C(F)(F)F)c2)[C@@H](c2ccc(F)cc2)c2c(CNC(=O)/C=C/C(=O)O)nn(-c3ccccc3)c21 (racemic) [Compound I-59, rac-I-4-((((4R,5R)-7-ethyl-4-(4-fluorophenyl)-6-oxo-1-phenyl-5-(3-(trifluoromethyl)benzamido)-4,5,6,7-tetrahydro-1H-pyrazolo[3,4-b]pyridine-3-yl)methyl)amino)-4-oxobut-2-enoic acid]	5.52 to 6.00	1000 to 3000	
CCN1C(=O)[C@@H](NC(=O)c2cccc(C(F)(F)F)c2)[C@@H](c2ccc(F)cc2)c2c(CN(C#N)CCF)nn(-c3ccccc3)c21 (racemic) [Compound I-61]	6.00 to 6.70	200 to 1000	
CCN1C(=O)[C@@H](NC(=O)c2cccc(C(F)(F)F)c2)[C@@H](c2ccc(F)cc2)c2c(NC(=O)C(C)(C)C#N)nn(-c3ccccc3)c21 (racemic) [Compound I-63]	6.00 to 6.70		
CCN1C(=O)[C@@H](NC(=O)c2cccc(C(F)(F)F)c2)[C@@H](c2ccc(F)cc2)c2c(CNC(=O)/C=C/C(N)=O)nn(-c3ccccc3)c21 (racemic) [Compound I-64, rac-N1-(((4R,5R)-7-ethyl-4-(4-fluorophenyl)-6-oxo-1-phenyl-5-(3-(trifluoromethyl)benzamido)-4,5,6,7-tetrahydro-1H-pyrazolo[3,4-b]pyridine-3-yl)methyl)fumaramide]	6.00 to 6.70	1000 to 3000	
CCN1C(=O)[C@@H](NC(=O)c2cccc(C(F)(F)F)c2)[C@@H](c2ccc(F)cc2)c2c(CNC(=O)C#CCN3CCOCC3)nn(-c3ccccc3)c21 (racemic) [Compound I-68, ˜{N}—[˜{rac}-(4˜{S},5˜{S})-7-ethyl-4-(4-fluorophenyl)-3-[(4-morpholinobut-2-ynoylamino)methyl]-6-oxo-1-phenyl-4,5-dihydropyrazolo[3,4-b]pyridine-5-yl]-3-(trifluoromethyl)benzamide]	6.00 to 6.70	200 to 1000	
CCN1C(=O)[C@@H](NC(=O)c2cccc(C(F)(F)F)c2)[C@@H](c2ccc(F)cc2)c2c(CC/C=C\C(=O)N(C)C)nn(-c3ccccc3)c21 (racemic) [Compound I-69]	6.00 to 6.70	200 to 1000	
CCN1C(=O)[C@@H](NC(=O)c2cccc(C(F)(F)F)c2)[C@@H](c2ccc(F)cc2)c2c(/C=C3/CCC(=O)N3)nn(-c3ccccc3)c21 (racemic) [Compound I-70, rac-N-((4R,5R)-7-ethyl-4-(4-fluorophenyl)-6-oxo-3-((Z)-(5-oxopyrrolidin-2-ylidene)methyl)-1-phenyl-4,5,6,7-tetrahydro-1H-pyrazolo[3,4-b]pyridin-5-yl)-3-(trifluoromethyl)benzamide]	5.52 to 6.00	1000 to 3000	
CCN1C(=O)[C@@H](NC(=O)c2cccc(C(F)(F)F)c2)[C@H](c2ccc(F)cc2)c2c(CNC(=O)C3=C(C(=O)OC)CCC3)nn(-c3ccccc3)c21 (racemic) [Compound I-71]	6.00 to 6.70	200 to 1000	
C=C(Cc1nn(-c2ccccc2)c2c1[C@H](c1ccc(F)cc1)[C@H](NC(=O)c1cccc(C(F)(F)F)c1)C(=O)N2CC)C(=O)OC(C)(C)C (racemic) [Compound I-78, rac-tert-butyl 2-(((4R,5R)-7-ethyl-4-(4-fluorophenyl)-6-oxo-1-phenyl-5-(3-(trifluoromethyl)benzamido)-4,5,6,7-tetrahydro-1H-pyrazolo[3,4-b]pyridin-3-yl)methyl)acrylate]	5.52 to 6.00	1000 to 3000	
CCN1C(=O)[C@@H](NC(=O)c2cccc(C(F)(F)F)c2)[C@@H](c2ccc(F)cc2)c2c(C(=O)NCCC#N)nn(-c3ccccc3)c21 (racemic) [Compound I-81, rac-(4R,5R)—N-(2-cyanoethyl)-7-ethyl-4-(4-fluorophenyl)-6-oxo-1-phenyl-5-(3-(trifluoromethyl)benzamido)-4,5,6,7-tetrahydro-1H-pyrazolo[3,4-b]pyridine-3-carboxamide]	5.52 to 6.00	1000 to 3000	
CCN1C(=O)[C@H](NC(=O)c2cccc(C(F)(F)F)c2)[C@H](c2ccc(F)cc2)c2c(CNC(=O)C3=CCN(C)C3)nn(-c3ccccc3)c21 (racemic) [Compound I-86, rac-N-(((4R,5R)-7-ethyl-4-(4-fluorophenyl)-6-oxo-1-phenyl-5-(3-(trifluoromethyl)benzamido)-4,5,6,7-tetrahydro-1H-pyrazolo[3,4-b]pyridin-3-yl)methyl)-1-methyl-2,5-dihydro-1H-pyrrole-3-carboxamide]	6.00 to 6.70	200 to 1000	
CCN1C(=O)[C@@H](NC(=O)c2cccc(C(F)(F)F)c2)[C@@H](c2ccc(F)cc2)c2c(CC/C=C/C(=O)NC)nn(-c3ccccc3)c21 (racemic) [Compound I-91]	6.00 to 6.70	200 to 1000	
CCN1C(=O)[C@@H](NC(=O)c2cccc(C(F)(F)F)c2)[C@@H](c2ccc(F)cc2)c2c(NC(=O)C#CCN(C)C)nn(-c3ccccc3)c21 (racemic) [Compound I-93, rac-N-((4R,5R)-3-(4-(dimethylamino)but-2-ynamido)-7-ethyl-4-(4-fluorophenyl)-6-oxo-1-phenyl-4,5,6,7-tetrahydro-1H-pyrazolo[3,4-b]pyridine-5-yl)-3-(trifluoromethyl)benzamide]	≥ 6.70	≤ 200	
C=C(CN1CC(F)(F)C1)C(=O)NCc1nn(-c2ccccc2)c2c1[C@H](c1ccc(F)cc1)[C@H](NC(=O)c1cccc(C(F)(F)F)c1)C(=O)N2CC (racemic) [Compound I-95]	6.00 to 6.70	200 to 1000	
CCN1C(=O)[C@@H](NC(=O)c2cccc(C(F)(F)F)c2)[C@@H](c2ccc(F)cc2)c2c(CNCC#N)nn(-c3ccccc3)c21 (racemic) [Compound I-96, rac-N-((4R,5R)-3-(((cyanomethyl)amino)methyl)-7-ethyl-4-(4-fluorophenyl)-6-oxo-1-phenyl-4,5,6,7-tetrahydro-1H-pyrazolo[3,4-b]pyridine-5-yl)-3-(trifluoromethyl)benzamide]	6.00 to 6.70	200 to 1000	
CCN1C(=O)[C@@H](NC(=O)c2cccc(C(F)(F)F)c2)[C@@H](C2CC2)c2c(CNC#N)nn(-c3ccccc3)c21 (racemic) [Compound I-98]	≥ 6.70	200 to 1000	
CCN1C(=O)[C@@H](NC(=O)c2cccc(C(F)(F)F)c2)[C@@H](c2ccc(F)cc2)c2c(C/C=C/C(=O)NCCCN(C)C)nn(-c3ccccc3)c21 (racemic) [Compound I-99]	6.00 to 6.70	200 to 1000	
CCN1C(=O)[C@@H](NC(=O)c2cccc(C(F)(F)F)c2)[C@@H](c2ccc(F)cc2)c2c(CNC(=O)C3(C#N)COC3)nn(-c3ccccc3)c21 (racemic) [Compound I-100, rac-3-cyano-N-(((4R,5R)-7-ethyl-4-(4-fluorophenyl)-6-oxo-1-phenyl-5-(3-(trifluoromethyl)benzamido)-4,5,6,7-tetrahydro-1H-pyrazolo[3,4-b]pyridine-3-yl)methyl)oxetane-3-carboxamide]	6.00 to 6.70	200 to 1000	
C=C(Cc1nn(-c2ccccc2)c2c1[C@H](c1ccc(F)cc1)[C@H](NC(=O)c1cccc(C(F)(F)F)c1)C(=O)N2CC)C(N)=O (racemic) [Compound I-105, rac-N-((4R,5R)-3-(2-carbamoylallyl)-7-ethyl-4-(4-fluorophenyl)-6-oxo-1-phenyl-4,5,6,7-tetrahydro-1H-pyrazolo[3,4-b]pyridin-5-yl)-3-(trifluoromethyl)benzamide]	6.00 to 6.70	200 to 1000	
CCN1C(=O)[C@@H](NC(=O)c2cccc(C(F)(F)F)c2)[C@@H](c2ccc(F)cc2)c2c(NC(=O)C(F)Cl)nn(-c3ccccc3)c21 (mixture of isomers) [Compound I-120]	6.00 to 6.70	200 to 1000	
